The compounds below were run on windgrass (Apera spica-venti) (assay: Test C postemergence greenhouse test, plant response rating 0-100). Conditions: 62 g ai/ha.
Assay type: in vivo
Procedure, shortened: (§1)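 Formulated compounds applied postemergence; plants 1- to 4-leaf stage. Evaluated visually vs. untreated controls after roughly two weeks (13–15 d) under greenhouse conditions; 100 denotes complete control.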

Row | Compound | Plant response rating (0 to 100), Windgrass
1 | Clc1cc(Cl)cc(-c2n[nH]cc2C(=NNc2ccccc2Cl)c2ccccc2)c1 [Compound 66] | 0

Same assay, conditions: 125 g ai/ha

Row | Compound | Plant response rating (0 to 100), Windgrass
2 | Clc1cc(Cl)cc(-c2n[nH]cc2C(=NNc2ccccc2Cl)c2ccccc2)c1 [Compound 66] | 0

Same assay, conditions: 250 g ai/ha, scale 0 to 100

Row | Compound | Plant response rating, Windgrass
3 | Clc1cc(Cl)cc(-c2n[nH]cc2C(=NNc2ccccc2Cl)c2ccccc2)c1 [Compound 66] | 0

Same assay, conditions: 500 g ai/ha, scale 0 to 100

Row | Compound | Plant response rating, Windgrass
4 | Clc1cc(Cl)cc(-c2n[nH]cc2C(=NNc2ccccc2Cl)c2ccccc2)c1 [Compound 66] | 0

These compounds were tested on cocklebur (common cocklebur, Xanthium strumarium) in the same assay as above. Conditions: 62 g ai/ha.
Assay type: in vivo
Procedure, shortened: as §1

Row | Compound | Plant response rating (0 to 100), Cocklebur
5 | Clc1cc(Cl)cc(-c2n[nH]cc2C(=NNc2ccccc2Cl)c2ccccc2)c1 [Compound 66] | 40

Same assay, conditions: 125 g ai/ha

Row | Compound | Plant response rating (0 to 100), Cocklebur
6 | Clc1cc(Cl)cc(-c2n[nH]cc2C(=NNc2ccccc2Cl)c2ccccc2)c1 [Compound 66] | 90

Same assay, conditions: 500 g ai/ha, scale 0 to 100

Row | Compound | Plant response rating, Cocklebur
7 | Clc1cc(Cl)cc(-c2n[nH]cc2C(=NNc2ccccc2Cl)c2ccccc2)c1 [Compound 66] | 90

Each compound was assayed on green foxtail (Setaria viridis) in the same assay as above. Conditions: 62 g ai/ha.
Assay type: in vivo
Procedure, shortened: as §1

Row | Compound | Plant response rating (0 to 100), Foxtail, Green
8 | Clc1cc(Cl)cc(-c2n[nH]cc2C(=NNc2ccccc2Cl)c2ccccc2)c1 [Compound 66] | 0

Same assay, conditions: 125 g ai/ha

Row | Compound | Plant response rating (0 to 100), Foxtail, Green
9 | Clc1cc(Cl)cc(-c2n[nH]cc2C(=NNc2ccccc2Cl)c2ccccc2)c1 [Compound 66] | 0

Same assay, conditions: 250 g ai/ha, scale 0 to 100

Row | Compound | Plant response rating, Foxtail, Green
10 | Clc1cc(Cl)cc(-c2n[nH]cc2C(=NNc2ccccc2Cl)c2ccccc2)c1 [Compound 66] | 0

Same assay, conditions: 500 g ai/ha, scale 0 to 100

Row | Compound | Plant response rating, Foxtail, Green
11 | Clc1cc(Cl)cc(-c2n[nH]cc2C(=NNc2ccccc2Cl)c2ccccc2)c1 [Compound 66] | 0

The compounds below were run on woolly cupgrass (Eriochloa villosa) in the same assay as above. Conditions: 62 g ai/ha.
Assay type: in vivo
Procedure, shortened: as §1

Row | Compound | Plant response rating (0 to 100), Cupgrass, Woolly
12 | Clc1cc(Cl)cc(-c2n[nH]cc2C(=NNc2ccccc2Cl)c2ccccc2)c1 [Compound 66] | 0

Same assay, conditions: 125 g ai/ha

Row | Compound | Plant response rating (0 to 100), Cupgrass, Woolly
13 | Clc1cc(Cl)cc(-c2n[nH]cc2C(=NNc2ccccc2Cl)c2ccccc2)c1 [Compound 66] | 0

Same assay, conditions: 250 g ai/ha, scale 0 to 100

Row | Compound | Plant response rating, Cupgrass, Woolly
14 | Clc1cc(Cl)cc(-c2n[nH]cc2C(=NNc2ccccc2Cl)c2ccccc2)c1 [Compound 66] | 0

Same assay, conditions: 500 g ai/ha, scale 0 to 100

Row | Compound | Plant response rating, Cupgrass, Woolly
15 | Clc1cc(Cl)cc(-c2n[nH]cc2C(=NNc2ccccc2Cl)c2ccccc2)c1 [Compound 66] | 0

Each compound was assayed on downy bromegrass (Bromus tectorum) in the same assay as above. Conditions: 62 g ai/ha.
Assay type: in vivo
Procedure, shortened: as §1

Row | Compound | Plant response rating (0 to 100), Bromegrass, Downy
16 | Clc1cc(Cl)cc(-c2n[nH]cc2C(=NNc2ccccc2Cl)c2ccccc2)c1 [Compound 66] | 0

Same assay, conditions: 125 g ai/ha

Row | Compound | Plant response rating (0 to 100), Bromegrass, Downy
17 | Clc1cc(Cl)cc(-c2n[nH]cc2C(=NNc2ccccc2Cl)c2ccccc2)c1 [Compound 66] | 0

Same assay, conditions: 250 g ai/ha, scale 0 to 100

Row | Compound | Plant response rating, Bromegrass, Downy
18 | Clc1cc(Cl)cc(-c2n[nH]cc2C(=NNc2ccccc2Cl)c2ccccc2)c1 [Compound 66] | 0

Same assay, conditions: 500 g ai/ha, scale 0 to 100

Row | Compound | Plant response rating, Bromegrass, Downy
19 | Clc1cc(Cl)cc(-c2n[nH]cc2C(=NNc2ccccc2Cl)c2ccccc2)c1 [Compound 66] | 0

What follows are compounds tested on deadnettle (henbit deadnettle, Lamium amplexicaule) in the same assay as above. Conditions: 62 g ai/ha.
Assay type: in vivo
Procedure, shortened: as §1

Row | Compound | Plant response rating (0 to 100), Deadnettle
20 | Clc1cc(Cl)cc(-c2n[nH]cc2C(=NNc2ccccc2Cl)c2ccccc2)c1 [Compound 66] | 0

Same assay, conditions: 125 g ai/ha

Row | Compound | Plant response rating (0 to 100), Deadnettle
21 | Clc1cc(Cl)cc(-c2n[nH]cc2C(=NNc2ccccc2Cl)c2ccccc2)c1 [Compound 66] | 0

Same assay, conditions: 250 g ai/ha, scale 0 to 100

Row | Compound | Plant response rating, Deadnettle
22 | Clc1cc(Cl)cc(-c2n[nH]cc2C(=NNc2ccccc2Cl)c2ccccc2)c1 [Compound 66] | 0

Same assay, conditions: 500 g ai/ha, scale 0 to 100

Row | Compound | Plant response rating, Deadnettle
23 | Clc1cc(Cl)cc(-c2n[nH]cc2C(=NNc2ccccc2Cl)c2ccccc2)c1 [Compound 66] | 5

What follows are compounds tested on canarygrass (Phalaris minor) in the same assay as above. Conditions: 62 g ai/ha.
Assay type: in vivo
Procedure, shortened: as §1

Row | Compound | Plant response rating (0 to 100), Canarygrass
24 | Clc1cc(Cl)cc(-c2n[nH]cc2C(=NNc2ccccc2Cl)c2ccccc2)c1 [Compound 66] | 0

Same assay, conditions: 125 g ai/ha

Row | Compound | Plant response rating (0 to 100), Canarygrass
25 | Clc1cc(Cl)cc(-c2n[nH]cc2C(=NNc2ccccc2Cl)c2ccccc2)c1 [Compound 66] | 0

Same assay, conditions: 250 g ai/ha, scale 0 to 100

Row | Compound | Plant response rating, Canarygrass
26 | Clc1cc(Cl)cc(-c2n[nH]cc2C(=NNc2ccccc2Cl)c2ccccc2)c1 [Compound 66] | 0

Same assay, conditions: 500 g ai/ha, scale 0 to 100

Row | Compound | Plant response rating, Canarygrass
27 | Clc1cc(Cl)cc(-c2n[nH]cc2C(=NNc2ccccc2Cl)c2ccccc2)c1 [Compound 66] | 0

What follows are compounds tested on winter barley (Hordeum vulgare) in the same assay as above. Conditions: 62 g ai/ha.
Assay type: in vivo
Procedure, shortened: as §1

Row | Compound | Plant response rating (0 to 100), Barley
28 | Clc1cc(Cl)cc(-c2n[nH]cc2C(=NNc2ccccc2Cl)c2ccccc2)c1 [Compound 66] | 0

Same assay, conditions: 125 g ai/ha

Row | Compound | Plant response rating (0 to 100), Barley
29 | Clc1cc(Cl)cc(-c2n[nH]cc2C(=NNc2ccccc2Cl)c2ccccc2)c1 [Compound 66] | 0

Same assay, conditions: 250 g ai/ha, scale 0 to 100

Row | Compound | Plant response rating, Barley
30 | Clc1cc(Cl)cc(-c2n[nH]cc2C(=NNc2ccccc2Cl)c2ccccc2)c1 [Compound 66] | 0

Same assay, conditions: 500 g ai/ha, scale 0 to 100

Row | Compound | Plant response rating, Barley
31 | Clc1cc(Cl)cc(-c2n[nH]cc2C(=NNc2ccccc2Cl)c2ccccc2)c1 [Compound 66] | 0

These compounds were tested on surinam grass (Brachiaria decumbens) in the same assay as above. Conditions: 62 g ai/ha.
Assay type: in vivo
Procedure, shortened: as §1

Row | Compound | Plant response rating (0 to 100), Surinam Grass
32 | Clc1cc(Cl)cc(-c2n[nH]cc2C(=NNc2ccccc2Cl)c2ccccc2)c1 [Compound 66] | 0

Same assay, conditions: 125 g ai/ha

Row | Compound | Plant response rating (0 to 100), Surinam Grass
33 | Clc1cc(Cl)cc(-c2n[nH]cc2C(=NNc2ccccc2Cl)c2ccccc2)c1 [Compound 66] | 0

Same assay, conditions: 250 g ai/ha, scale 0 to 100

Row | Compound | Plant response rating, Surinam Grass
34 | Clc1cc(Cl)cc(-c2n[nH]cc2C(=NNc2ccccc2Cl)c2ccccc2)c1 [Compound 66] | 0

Same assay, conditions: 500 g ai/ha, scale 0 to 100

Row | Compound | Plant response rating, Surinam Grass
35 | Clc1cc(Cl)cc(-c2n[nH]cc2C(=NNc2ccccc2Cl)c2ccccc2)c1 [Compound 66] | 0

These compounds were tested on sedge, umbrella (small-flower umbrella sedge, Cyperus difformis) (assay: Test B flooded paddy test, plant response rating 0-100). Conditions: Flood, 250 g ai/ha; scale 0 to 100 (0 no effect, 100 complete control); 13 to 15 days.
Assay type: in vivo
Procedure, shortened: (§2)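 Test compounds are applied straight into paddy water held 3 cm above the soil surface, with that flood maintained for the whole test. After 13 to 15 days in the greenhouse, each species is scored visually relative to controls.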

Row | Compound | Plant response rating, Sedge, Umbrella
36 | Clc1cc(Cl)cc(-c2n[nH]cc2C(=NNc2ccccc2Cl)c2ccccc2)c1 [Compound 66] | 70

Each compound was assayed on rice (Oryza sativa) in the same assay as above. Conditions: Flood, 250 g ai/ha; scale 0 to 100 (0 no effect, 100 complete control); 13 to 15 days.
Assay type: in vivo
Procedure, shortened: as §2

Row | Compound | Plant response rating, Rice
37 | Clc1cc(Cl)cc(-c2n[nH]cc2C(=NNc2ccccc2Cl)c2ccccc2)c1 [Compound 66] | 0

Each compound was assayed on barnyardgrass (Echinochloa crus-galli) in the same assay as above. Conditions: Flood, 250 g ai/ha; scale 0 to 100 (0 no effect, 100 complete control); 13 to 15 days.
Assay type: in vivo
Procedure, shortened: as §2

Row | Compound | Plant response rating, Barnyardgrass
38 | Clc1cc(Cl)cc(-c2n[nH]cc2C(=NNc2ccccc2Cl)c2ccccc2)c1 [Compound 66] | 0

What follows are compounds tested on ducksalad (Heteranthera limosa) in the same assay as above. Conditions: Flood, 250 g ai/ha; scale 0 to 100 (0 no effect, 100 complete control); 13 to 15 days.
Assay type: in vivo
Procedure, shortened: as §2

Row | Compound | Plant response rating, Ducksalad
39 | Clc1cc(Cl)cc(-c2n[nH]cc2C(=NNc2ccccc2Cl)c2ccccc2)c1 [Compound 66] | 0

— patent US10167262B2, “Herbicidal substituted 3-arylpyrazoles” (FMC CORPORATION, priority 2014, dated 2019)
